Experimental data published in patent publication US20040009485A1, “Cellular arrays for the identification of altered gene expression” (priority 2002, published 2004).

Key:
[1] = test system: heat shock regulon gene fusions; assay: Stress response of heat shock regulon luxCDABE gene fusions (ethanol); type: cell-based, E. coli; conditions: clpB-luxCDABE fusion (heat shock regulon), DPD2243; 5 μg/ml nalidixic acid, 110 minutes
Protocol: To test the stress responses, one or two single colonies of each selected strain were used to inoculate 5.0 ml of LB medium containing 150 μg/ml of ampicillin. These cultures were grown overnight at 37° C. then diluted by adding 50 μl or 100 μl of the overnight culture into 10.0 ml of fresh LB medium (without ampicillin) and grown with agitation at 37° C. until the culture was in exponential phase with readings on a Klett-Summerson colorimeter containing the red filter of between 10 and 40. These actively growing cultures were immediately used to initiate a stress response experiment by adding 50 μl of cultures to 50 μl of LB medium containing various concentrations of chemical in the wells a 96 well luminometer plate. This division of the actively growing culture at the time of chemical addition ensured identical populations were present when the stress was imposed. Light production was measured in a Dynex ML3000 luminometer at 37° C. The dimensionless units of light production, relative light units (RLU), are obtained by comparison with the light reading from an internal light-emitting diode. The cycle mode of the ML3000 luminometer, similar to previous descriptions (Van Dyk et al., Appl. Environ. Microbiol. 60:1414-120) was used. […]

[2] = test system: Luxarray 0.5 reporter clones; assay: High density Luxarray 0.5 nalidixic acid perturbation (cooled CCD camera); type: cell-based, E. coli; conditions: 5 μg/ml, 0-8 hr
Protocol: The clones of Luxarray 0.5 were used to print arrays as described above at a 4×4 density. That is to say that each single spot as in FIG. 3 was replicated 16× in a 4×4 subarray. […] Arrays were printed in triplicate from fresh overnight cultures onto membranes on plates containing LB media. […] Cultures were replaced at 37° C. to continue growing. Images were collected for each array every two hours from 0-8 hr after relocation using a cooled CCD camera (FluorChem 8000: f0.85 lens, 2 min exposure. AlphaInnotech). Spot intensity was determined using ArrayVision™ (Imaging Research, Toronto, Canada).
In contrast, light production from the strain carrying the lac promoter fusion as well as several strains carrying other promoter fusions was decreased.

[3] = test system: uhpT-luxCDABE gene fusion (E. coli strain DPD3228); assay: Verification of uhpT-lux upregulation by limonene; type: cell-based; conditions: late response, maximal at highest conc, also detected at 40% or 20% of saturating amounts (FIG. 10)
Protocol: E. coli strain DPD3228 is identical to lux-a.pk034.b9 the strain containing the uhpT-luxCDABE gene fusion. This strain was grown overnight at 37° C. in LB medium containing 100 μg/ml ampicillin and diluted the following day into LB medium and grown to log phase at 37° C. 20 μl aliquots of this culture were added to 80 μl of LB medium saturated with limonene, to 80 μl of a series of two fold dilutions into LB medium of LB saturated with limonene, and to 80 μl of LB medium. Light production was measured in a Luminoskan Ascent (Labsystems) microplate luminometer at 37° C. […] Similar to the initial LuxArray observations, a late response to the presence of limonene was observed. This response was maximal at the highest concentration of limonene tested, but was also detected when limonene was present at 40% or 20% of saturating amounts in LB medium.

CCn1cc(C(=O)O)c(=O)c2ccc(C)nc21 [Nalidixic acid, nalidixic acid]
Response Ratio [1]: 0.40
reporter expression, high density array ([2]; five documented DNA damage-responsive reporter constructs): upregulation of expression
light production, high density array ([2]; lac promoter fusion and several other promoter fusions): decreased

C=C(C)[C@H]1CC=C(C)CC1 [limonene]
upregulation of bioluminescence of uhpT-luxCDABE strain [3]: upregulation of bioluminescence from this strain by limonene was confirmed
